{"source": "patent US20160223554A1", "about": "“METHODS FOR DIAGNOSIS, PROGNOSIS AND METHODS OF TREATMENT” (priority 2011, published 2016)", "molecules": {"B1": {"name": "CD40L (protein, UniProt P29965 113-261, looked up)", "CD40 ligand, soluble form": "MQKGDQNPQIAAHVISEASSKTTSVLQWAEKGYYTMSNNLVTLENGKQLTVKRQGLYYIYAQVTFCSNREASSQAPFIASLCLKSPGRFERILLRAANTHSSAKPCGQQSIHLGGVFELQPGASVFVNVTDPSQVSHGTGFTSFGLLKL"}, "B2": {"name": "M-CSF (protein, UniProt P09603 33-554, looked up)", "Macrophage colony-stimulating …": "EEVSEYCSHMIGSGHLQSLQRLIDSQMETSCQITFEFVDQEQLKDPVCYLKKAFLLVQDIMEDTMRFRDNTPNAIAIVQLQELSLRLKSCFTKDYEEHDKACVRTFYETPLQLLEKVKNVFNETKNLLDKDWNIFSKNCNNSFAECSSQDVVTKPDCNCLYPKAIPSSDPASVSPHQPLAPSMAPVAGLTWEDSEGTEGSSLLPGEQPLHTVDPGSAKQRPPRSTCQSFEPPETPVVKDSTIGGSPQPRPSVGAFNPGMEDILDSAMGTNWVPEEASGEASEIPVPQGTELSPSRPGGGSMQTEPARPSNFLSASSPLPASAKGQQPADVTGTALPRVGPVRPTGQDWNHTPQKTDHPSALLRDPPEPGSPRISSLRPQGLSNPSTLSAQPQLSRSHSSGSVLPLGELEGRRSTRDRRSPAEPEGGPASEGAARPLPRFNSVPLTDTGHERQSEGSFSPQLQESVFHLLVPSVILVLLAVGGLLFYRWRRRSHQEPQRADSPLEQPEGSPLTQDDRQVELPV"}}, "key": {"AML blasts [1]": {"test_system": "AML blasts", "assay": "SCNP phospho-flow signaling nodes in AML PBMC (Example 2, Study No. 1)", "type": "cell-based, human", "settings": "for Mean Value of CRs: CR patients; for Mean Value of CRs / Mean Value of NRs: Study No. 1; for Mean Value of NRs: NR patients", "description": "Frozen cells are thawed in a 37° C. water bath and gently resuspended in the vial and transferred to the 15 mL conical tube. The 15 mL tube is centrifuged at 930 RPM (200×g) for 8 minutes at room temperature. The supernatant is aspirated and the pellet is gently resuspended in 1 mL media A. The cell suspension is filtered through a 70 um cell strainer into a new 15 mL tube. The cell strainer is rinsed with 1 mL media A and another 12 ml of media A into the 15 mL tube. The cells are mixed into an even suspension. A 20 μL aliquot is immediately removed into a 96-well plate containing 180 μL PBS+4% FBS+CD45 Alexa 700+PI to determine cell count and viability post spin. After the determination, the 15 mL tubes are centrifuged at 930 RPM (200×g) for 8 minutes at room temperature. The supernatant is aspirated and the cell pellet is gently resuspended in 4 mL PBS+4 μL Amine Aqua and incubated for 15 min in a 37° C. incubator. 10 mL RPMI+1% FBS is added to the cell suspension and the tube is inverted to mix the cells. The 15 mL tubes are centrifuged at 930 RPM (200×g) for 8 minutes at room temperature. The cells are resuspended in Media A at the desired cell concentration (1.25×10^6/mL). For samples with low numbers of cells (<18.5×10^6), the cells are resuspended in up to 15 mL media. For samples with high numbers of cells (>18.5×10^6), the volume is raised to 10 mL with media A and the desired volume is transferred to a new 15 mL tube, and the cell concentration is adjusted to 1.25×10^6 cells/ml. 1.6 mL of the above cell suspension (concentration at 1.25×10^6 cells/ml) is transferred into wells of a multi-well plate. From this plate, 80 ul is dispensed into each well of a subsequent plate. The plates are covered with a lid (Nunc) and placed in a 37° C. incubator for 2 hours to rest.\nA concentration for each stimulant that is five folds more (5×) than the final concentration is prepared using Media A as diluent. 5× stimuli are arrayed into wells of a standard 96 well v-bottom plate that correspond to the wells on the plate with cells to be stimulated.\nAdding the stimulant: The cell plate(s) are taken out of the incubator and placed in a 37° C. water bath next to the pipette apparatus. The cell plate is taken from the water bath and gently swirled to resuspend any settled cells. With pipettor, the stimulant is dispensed into the cell plate and vortexed at “7” for 5 seconds. The deep well plate is put back into the water bath.\nThe plate is covered with foil sealer and incubated in a 37° C. water bath for 10 minutes. The plate is spun for 6 minutes at 2000 rpm at room temperature. The cells are aspirated using a 96 well plate aspirator (VP Scientific). The plate is vortexed to resuspend cell pellets in the residual volume. The pellet is ensured to be dispersed before the Methanol step (see cell permeabilization) or clumping will occur.\nCell Permeabilization: Permeability agent, for example methanol, is added slowly and while the plate is vortexing. To do this, the cell plate is placed on titer plate shaker and made sure it is secure. The plate is set to shake using the highest setting. A pipetter is used to add 0.6 mls of 100% methanol to the plate wells. The plate(s) are put on ice until this step has been completed for all plates. Plates are covered with a foil seal using the plate roller to achieve a tight fit. At this stage the plates can be stored at −80° C.\nCells are thawed if frozen. Cells are pelleted at 2000 rpm 5 minutes. Supernatant is aspirated with vacuum aspirator. Plate is vortexed on a “plate vortex” for 5-10 seconds. Cells are washed with 1 mL FACS buffer. Repeat the spin, aspirate and vortex steps as above. 50 μL of FACS/stain buffer with the desired, previously optimized, antibody cocktail is added to two rows of cells at a time and agitate the plate. The plate is covered and incubated in a shaker for 30 minutes at room temperature (RT). During this incubation, the compensation plate is prepared."}, "AML blasts [2]": {"test_system": "AML blasts", "assay": "SCNP signaling and apoptosis nodes in AML BMMC (Example 4, Study No. 2)", "type": "cell-based, human"}, "[3]": {"settings": "Total Phospho metric, Study No. 1, CRp patient included in NR group"}, "[4]": {"settings": "read-out p-CREB, metric TotalPhospho"}, "[5]": {"settings": "read-out p-Plcγ2, metric TotalPhospho"}, "[6]": {"settings": "Fold metric, all patients, Study No. 2"}, "[7]": {"settings": "Study No.2, patients age 60 and older"}, "[8]": {"settings": "read-out p-Akt, metric TotalPhospho"}, "[9]": {"settings": "Study No.2, patients less than 60 years old"}, "[10]": {"settings": "Study No.2, patients with Secondary AML"}, "[11]": {"settings": "read-out p-Erk, metric TotalPhospho"}, "[12]": {"settings": "Fold metric, Study No. 1, CRp patient included in NR group"}}}
{"molecule": "IGF-1", "values": [{"measurement": "Mean Value of CRs, p-CREB Alexa488", "setting": "AML blasts [1]; [3]", "result": 1.11}, {"measurement": "Mean Value of CRs, p-CREB PE", "setting": "AML blasts [1]; [3]", "result": 1.42}, {"measurement": "Mean Value of CRs, p-Plcγ2", "setting": "AML blasts [1]; [3]", "result": 1.82}, {"measurement": "Mean Value of NRs, p-CREB Alexa488", "setting": "AML blasts [1]; [3]", "result": 1.62}, {"measurement": "Mean Value of NRs, p-CREB PE", "setting": "AML blasts [1]; [3]", "result": 2.29}, {"measurement": "Mean Value of NRs, p-Plcγ2", "setting": "AML blasts [1]; [3]", "result": 2.76}, {"measurement": "Mean Value of CRs", "setting": "AML blasts [1]; [4]", "result": 1.52}, {"measurement": "Mean Value of NRs", "setting": "AML blasts [1]; [4]", "result": 2.29}, {"measurement": "Mean Value of CRs", "setting": "AML blasts [1]; [5]", "result": 1.91}, {"measurement": "Mean Value of NRs", "setting": "AML blasts [1]; [5]", "result": 2.76}]}
{"molecule": "OO", "note": "[H2O2, reference compound]", "values": [{"measurement": "Mean Value of CRs", "setting": "AML blasts [1]; read-out p-Lck, metric Fold", "result": 0.42}, {"measurement": "Mean Value of NRs", "setting": "AML blasts [1]; read-out p-Lck, metric Fold", "result": 0.12}, {"measurement": "Mean Value of CRs", "setting": "AML blasts [1]; read-out p-SLP 76, metric Fold", "result": 1.35}, {"measurement": "Mean Value of NRs", "setting": "AML blasts [1]; read-out p-SLP 76, metric Fold", "result": 0.08}, {"measurement": "Mean Value of CRs, p-Akt", "setting": "AML blasts [2]; [6]", "result": 0.68}, {"measurement": "Mean Value of NRs, p-Akt", "setting": "AML blasts [2]; [6]", "result": 0.91}, {"measurement": "Mean Value of CRs, p-Akt Fold", "setting": "AML blasts [2]; [7]", "result": 0.45}, {"measurement": "Mean Value of CRs, p-Akt TotalPhospho", "setting": "AML blasts [2]; [7]", "result": 0.84}, {"measurement": "Mean Value of CRs, p-Plcγ2 TotalPhospho", "setting": "AML blasts [2]; [7]", "result": 1.19}, {"measurement": "Mean Value of NRs, p-Akt Fold", "setting": "AML blasts [2]; [7]", "result": 0.88}, {"measurement": "Mean Value of NRs, p-Akt TotalPhospho", "setting": "AML blasts [2]; [7]", "result": 1.33}, {"measurement": "Mean Value of NRs, p-Plcγ2 TotalPhospho", "setting": "AML blasts [2]; [7]", "result": 1.86}]}
{"molecule": "IL-l0", "values": [{"measurement": "Mean Value of CRs, p-Stat1", "setting": "AML blasts [1]; [3]", "result": 0.17}, {"measurement": "Mean Value of NRs, p-Stat1", "setting": "AML blasts [1]; [3]", "result": 0.47}]}
{"molecule": "SDF -1α", "values": [{"measurement": "Mean Value of CRs", "setting": "AML blasts [1]; [8]", "result": 0.57}, {"measurement": "Mean Value of NRs", "setting": "AML blasts [1]; [8]", "result": 1.04}]}
{"molecule": "COc1cc([C@@H]2c3cc4c(cc3[C@@H](O[C@@H]3O[C@@H]5CO[C@@H](C)O[C@H]5[C@H](O)[C@H]3O)[C@H]3COC(=O)[C@H]23)OCO4)cc(OC)c1O", "note": "[Etoposide, reference compound]", "values": [{"measurement": "Mean Value of CRs, c-PARP", "setting": "AML blasts [2]; [6]", "result": 0.79}, {"measurement": "Mean Value of NRs, c-PARP", "setting": "AML blasts [2]; [6]", "result": 0.25}, {"measurement": "Mean Value of CRs, p-Chk2−,c-PARP+ Quad", "setting": "AML blasts [2]; [9]", "result": 21.17}, {"measurement": "Mean Value of NRs, p-Chk2−,c-PARP+ Quad", "setting": "AML blasts [2]; [9]", "result": 9.58}, {"measurement": "Mean Value of CRs, p-Chk2+,c-PARP− Quad", "setting": "AML blasts [2]; [10]", "result": 20.98}, {"measurement": "Mean Value of CRs, p-Chk2−,c-PARP+ Quad", "setting": "AML blasts [2]; [10]", "result": 32.71}, {"measurement": "Mean Value of NRs, p-Chk2+,c-PARP− Quad", "setting": "AML blasts [2]; [10]", "result": 55.02}, {"measurement": "Mean Value of NRs, p-Chk2−,c-PARP+ Quad", "setting": "AML blasts [2]; [10]", "result": 13.24}]}
{"molecule": "B1", "values": [{"measurement": "Mean Value of CRs, p-CREB", "setting": "AML blasts [1]; [3]", "result": 1.37}, {"measurement": "Mean Value of CRs, p-Erk", "setting": "AML blasts [1]; [3]", "result": 1.18}, {"measurement": "Mean Value of NRs, p-CREB", "setting": "AML blasts [1]; [3]", "result": 2.67}, {"measurement": "Mean Value of NRs, p-Erk", "setting": "AML blasts [1]; [3]", "result": 1.62}, {"measurement": "Mean Value of CRs", "setting": "AML blasts [1]; [4]", "result": 1.55}, {"measurement": "Mean Value of NRs", "setting": "AML blasts [1]; [4]", "result": 2.66}, {"measurement": "Mean Value of CRs", "setting": "AML blasts [1]; [11]", "result": 1.18}, {"measurement": "Mean Value of NRs", "setting": "AML blasts [1]; [11]", "result": 1.64}]}
{"molecule": "B2", "values": [{"measurement": "Mean Value of CRs, p-Akt", "setting": "AML blasts [1]; [12]", "result": "−0.16"}, {"measurement": "Mean Value of NRs, p-Akt", "setting": "AML blasts [1]; [12]", "result": 0.05}, {"measurement": "Mean Value of CRs, p-CREB", "setting": "AML blasts [1]; [3]", "result": 1.26}, {"measurement": "Mean Value of CRs, p-Plcγ2", "setting": "AML blasts [1]; [3]", "result": 1.79}, {"measurement": "Mean Value of NRs, p-CREB", "setting": "AML blasts [1]; [3]", "result": 1.76}, {"measurement": "Mean Value of NRs, p-Plcγ2", "setting": "AML blasts [1]; [3]", "result": 2.8}, {"measurement": "Mean Value of CRs", "setting": "AML blasts [1]; [5]", "result": 1.86}, {"measurement": "Mean Value of NRs", "setting": "AML blasts [1]; [5]", "result": 2.81}]}
